According to article PMC12006171, “Marsupial cathelicidins: characterization, antimicrobial activity and evolution in this unique mammalian lineage” (Frontiers in Immunology, 2025):
≈ marks a conversion by molar mass, not a printed value. Like-named read-outs stand apart in the source and are kept apart here. Blank lines part the entries; values can stand above or below the compound they belong to. Where a SMILES comes first, the peptide text is derived from it.

Tests used:
Type in all cases: cell-based
[1] = tested on: Staphylococcus aureus ATCC 29213; assay: microbe, parasite or virus in culture; conditions: ATCC 29213
Summary of the method: (§1)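 Broth microdilution following CLSI M07-A/M26A, using peptides at 64–0.125 μg/mL final in MHB, with or without 10% lysed horse blood and with or without Ca/Mg cations (MH II B). Inoculum 5 x 10^5 CFU/mL, incubated 20–24 h at 35 °C; MIC is lowest concentration preventing visible growth, MBC by colony counts versus starting inoculum.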

[2] = tested on: Pseudomonas aeruginosa clinical isolate - animal; assay: microbe, parasite or virus in culture; conditions: clinical isolate - animal
Summary of the method: as §1

[3] = tested on: Staphylococcus aureus clinical isolate - animal; assay: microbe, parasite or virus in culture; conditions: clinical isolate - animal
Summary of the method: as §1

[4] = tested on: Escherichia coli ATCC 25922; assay: microbe, parasite or virus in culture; conditions: ATCC 25922
Summary of the method: as §1

[5] = tested on: Pseudomonas aeruginosa ATCC 27853; assay: microbe, parasite or virus in culture; conditions: ATCC 27853
Summary of the method: as §1

[6] = tested on: Escherichia coli clinical isolate - animal; assay: microbe, parasite or virus in culture; conditions: clinical isolate - animal
Summary of the method: as §1

[7] = tested on: Candida albicans Clinical isolate - human; assay: microbe, parasite or virus in culture; conditions: Clinical isolate - human
Summary of the method: (§2)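 Broth microdilution per CLSI M07-A/M26A; cathelicidin peptides tested at final 64-0.125μg/mL, inoculum 5 x 10^5 CFU/mL, 35°C for 20–24 hours. Bacteria in MHB (±10% lysed horse blood, ±Ca/Mg), yeasts in RPMI-1640 MOPS. MIC = lowest concentration preventing visible growth.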

Candida krusei ATCC 6258 = assay: microbe, parasite or virus in culture; conditions: ATCC 6258
Summary of the method: as §2

[8] = tested on: Streptococcus pneumoniae ATCC 49619; assay: microbe, parasite or virus in culture; conditions: ATCC 49619
Summary of the method: as §2

[9] = tested on: Streptococcus agalactiae Clinical isolate - animal; assay: microbe, parasite or virus in culture; conditions: clinical isolate - animal
Summary of the method: as §2

[10] = tested on: Streptococcus agalactiae ATCC 12386; assay: microbe, parasite or virus in culture; conditions: ATCC 12386
Summary of the method: as §2

[11] = tested on: Candida parapsilosis ATCC 22019; assay: microbe, parasite or virus in culture; conditions: ATCC 22019
Summary of the method: as §2

[12] = tested on: Staphylococcus aureus clinical isolate – animal, penicillin-resistant (PRSA); conditions: clinical isolate – animal, penicillin-resistant (PRSA)
Summary of the method: as §2

[13] = tested on: Staphylococcus aureus clinical isolate – animal, methicillin-resistant (MRSA); conditions: clinical isolate – animal, methicillin-resistant
Summary of the method: as §2

[14] = read-out: MIC in the presence of cations E. coli ATCC

MIC S. aureus ATCC [1]: 7.4 (7.4)^7.4 µM | MIC in the presence of cations S. aureus ATCC [1]: 7.4 (7.4)^7.4 µM | MIC ([2]; read-out: MIC P. aeruginosa): 3.7 µM (≈ 16 µg/mL) | MIC ([2]; read-out: MIC in the presence of cations P. aeruginosa): 3.7 µM | MIC S. aureus [3]: 7.4 (7.4)^7.4 µM | MIC in the presence of cations S. aureus [3]: 7.4 (7.4)^7.4 µM | MIC ([4]; read-out: MIC E. coli ATCC): 3.7 µM (≈ 16 µg/mL) | MIC [4, 14]: 3.7 µM | MIC P. aeruginosa ATCC [5]: 3.7 (3.7)^3.7 µM | MIC in the presence of cations P. aeruginosa ATCC [5]: 3.7 (3.7)^3.7 µM | MIC [6]: 3.7 µM (≈ 16 µg/mL) | MIC in the presence of cations E. coli [6]: 1.8 µM | MIC C. albicans [7]: >64 mg/L | MIC S. pneumoniae ATCC [8]: 7.4 µM (≈ 31.9 µg/mL) | MIC S. agalactiae [9]: 7.4 µM (≈ 31.9 µg/mL) | MIC S. agalactiae ATCC [10]: 14.8 µM (≈ 63.8 µg/mL) | MIC ([11]; read-out: MIC C. parapsilosis ATCC): 7.4 µM (≈ 31.9 µg/mL) | MIC PRSA [12]: 3.7 µM (≈ 16 µg/mL) | MIC MRSA [13]: 14.8 µM (≈ 63.8 µg/mL)
SMILES: CC[C@H](C)[C@H](NC(=O)[C@H](CCCNC(=N)N)NC(=O)CNC(=O)[C@H](CCCNC(=N)N)NC(=O)[C@@H](N)CCCCN)C(=O)N[C@@H](Cc1ccccc1)C(=O)N[C@@H](CCCNC(=N)N)C(=O)N[C@@H](CCCCN)C(=O)N[C@@H](Cc1ccccc1)C(=O)N[C@@H](CCCCN)C(=O)N[C@@H](CCCCN)C(=O)N[C@@H](CC(C)C)C(=O)N[C@@H](CC(C)C)C(=O)N[C@@H](CCCCN)C(=O)N[C@@H](CCCCN)C(=O)N[C@@H](CC(C)C)C(=O)NCC(=O)N[C@@H](CC(=O)O)C(=O)N[C@@H](CCCCN)C(=O)N[C@H](C(=O)N[C@@H](CCCCN)C(=O)N[C@@H](CC(N)=O)C(=O)N[C@H](C(=O)N[C@@H](CC(C)C)C(=O)N[C@@H](CCCCN)C(=O)N[C@@H](CC(N)=O)C(=O)N[C@@H](C)C(=O)N[C@@H](CCCNC(=N)N)C(=O)N[C@@H](CC(N)=O)C(=O)NCC(=O)N[C@@H](Cc1ccccc1)C(=O)N[C@@H](CC(C)C)C(=O)NCC(=O)N1CCC[C@H]1C(=O)N[C@H](C(=O)NCC(=O)N[C@@H](CCCNC(=N)N)C(=O)O)[C@@H](C)CC)[C@@H](C)O)[C@@H](C)CC [MAP8] (H-KRGRIFRKFKKLLKKLGDKIKNTLKNARNGFLGPIGR-OH)
MBC S. aureus ATCC [1]: 7.4 (7.4)^7.4 µM | MBC P. aeruginosa [2]: 7.4 µM (≈ 31.9 µg/mL) | MBC S. aureus [3]: 7.4 (7.4)^7.4 µM | MBC E. coli ATCC [4]: 7.4 µM (≈ 31.9 µg/mL) | MBC P. aeruginosa ATCC [5]: 3.7 (3.7)^3.7 µM | MBC E. coli [6]: 3.7 µM (≈ 16 µg/mL) | MFC C. krusei ATCC (Candida krusei ATCC 6258): > 64 mg/L | MBC S. pneumoniae ATCC [8]: 7.4 µM (≈ 31.9 µg/mL) | MBC S. agalactiae [9]: 7.4 µM (≈ 31.9 µg/mL) | MBC S. agalactiae ATCC [10]: 14.8 µM (≈ 63.8 µg/mL) | MBC PRSA [12]: 7.4 µM (≈ 31.9 µg/mL) | MBC MRSA [13]: > 14.8 µM

MIC ([1]; read-out: MIC S. aureus ATCC): 8.8 µM (≈ 31.8 µg/mL) | MIC ([1]; read-out: MIC in the presence of cations S. aureus ATCC): 4.4 µM | MIC ([2]; read-out: MIC P. aeruginosa): >17.7 µM | MIC ([3]; read-out: MIC S. aureus): 4.4 µM (≈ 15.9 µg/mL) | MIC ([3]; read-out: MIC in the presence of cations S. aureus): 4.4 µM | MIC ([4]; read-out: MIC E. coli ATCC): 8.8 µM (≈ 31.8 µg/mL) | MIC [4, 14]: 8.8 µM | MIC ([5]; read-out: MIC P. aeruginosa ATCC): >17.7 µM | MIC E. coli [6]: 8.8 (8.8)^8.8 µM | MIC in the presence of cations E. coli [6]: 8.8 (8.8)^8.8 µM | MIC ([7]; read-out: MIC C. albicans): >17.7 µM | MIC C. krusei ATCC (Candida krusei ATCC 6258): 4.4 µM (≈ 15.9 µg/mL) | MIC ([8]; read-out: MIC S. pneumoniae ATCC): >17.7 µM | MIC ([9]; read-out: MIC S. agalactiae): >17.7 µM | MIC ([10]; read-out: MIC S. agalactiae ATCC): >17.7 µM | MIC C. parapsilosis ATCC [11]: 17.7 µM (≈ 63.9 µg/mL) | MIC PRSA [12]: 2.2 µM (≈ 7.95 µg/mL) | MIC MRSA [13]: 8.8 µM (≈ 31.8 µg/mL)
SMILES: CC[C@H](C)[C@H](NC(=O)[C@H](CCCNC(=N)N)NC(=O)[C@@H](NC(=O)[C@H](CCCNC(=N)N)NC(=O)[C@@H](N)CCCCN)[C@@H](C)CC)C(=O)N[C@@H](CC(C)C)C(=O)NCC(=O)N[C@@H](CCCNC(=N)N)C(=O)N[C@@H](CC(C)C)C(=O)N[C@@H](Cc1c[nH]c2ccccc12)C(=O)N[C@@H](CC(=O)O)C(=O)NCC(=O)N[C@@H](CC(C)C)C(=O)N[C@@H](CCCNC(=N)N)C(=O)N[C@@H](CC(N)=O)C(=O)N[C@@H](CC(C)C)C(=O)NCC(=O)N[C@@H](CC(N)=O)C(=O)N[C@@H](CCCNC(=N)N)C(=O)N[C@H](C(=O)N[C@@H](CCCNC(=N)N)C(=O)N[C@@H](CC(N)=O)C(=O)N[C@@H](CCCNC(=N)N)C(=O)N[C@H](C(=O)N[C@@H](CCCNC(=N)N)C(=O)N[C@@H](CC(=O)O)C(=O)N[C@@H](Cc1ccccc1)C(=O)N[C@@H](Cc1ccccc1)C(=O)N[C@@H](CO)C(=O)O)[C@@H](C)CC)[C@@H](C)CC [MyfaCath5] (H-KRIRILGRLWDGLRNLGNRIRNRIRDFFS-OH)
MBC S. aureus ATCC [1]: 17.7 µM (≈ 63.9 µg/mL) | MBC S. aureus [3]: 8.8 µM (≈ 31.8 µg/mL) | MBC E. coli ATCC [4]: 17.7 µM (≈ 63.9 µg/mL) | MBC E. coli [6]: 8.8 (8.8)^8.8 µM | MFC C. krusei ATCC (Candida krusei ATCC 6258): 4.4 µM | MFC C. parapsilosis ATCC [11]: 17.7 µM (≈ 63.9 µg/mL) | MBC PRSA [12]: 2.2 µM (≈ 7.95 µg/mL) | MBC MRSA [13]: 8.8 µM (≈ 31.8 µg/mL)
